Like-named read-outs stand apart in the source and are kept apart here.
Legend:
[1] = biological target: T1, Recombinant STAT3 protein (STAT3 (G127-I722)) (Homo sapiens, UniProt P40763); experiment: STAT3 Fluorescence Polarization (FP) Assay; format: binding; conditions: STAT3 (G127-I722) 25 nM, probe 5-FAM-GpYLPQTV-NH2 2 nM, 45-minute incubation; read-out: STAT3 (FP assay IC50 class)
T1 construct: Recombinant STAT3 protein (STAT3 (G127-I722))
Summary of the method: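 Read-out is fluorescence polarization (mP) after 45 min at room temperature, with IC50 fitted by nonlinear regression against log compound concentration. Mixture: 25 nM STAT3 (G127-I722), 2 nM 5-FAM-GpYLPQTV-NH2 phosphopeptide, 10 mM HEPES pH 7.4 buffer, 1% DMSO.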

[2] = biological target: T2, Recombinant STAT6 protein (STAT6 (W123-T658)) (Homo sapiens, UniProt P42226); experiment: STAT6 Fluorescence Polarization (FP) Assay; format: binding; conditions: STAT6 (W123-T658) 250 nM, 45-minute incubation, read-out: STAT6 (FP assay IC50 class)
T2 construct: Recombinant STAT6 protein (STAT6 (W123-T658))
T2 sequence (P42226 123-658): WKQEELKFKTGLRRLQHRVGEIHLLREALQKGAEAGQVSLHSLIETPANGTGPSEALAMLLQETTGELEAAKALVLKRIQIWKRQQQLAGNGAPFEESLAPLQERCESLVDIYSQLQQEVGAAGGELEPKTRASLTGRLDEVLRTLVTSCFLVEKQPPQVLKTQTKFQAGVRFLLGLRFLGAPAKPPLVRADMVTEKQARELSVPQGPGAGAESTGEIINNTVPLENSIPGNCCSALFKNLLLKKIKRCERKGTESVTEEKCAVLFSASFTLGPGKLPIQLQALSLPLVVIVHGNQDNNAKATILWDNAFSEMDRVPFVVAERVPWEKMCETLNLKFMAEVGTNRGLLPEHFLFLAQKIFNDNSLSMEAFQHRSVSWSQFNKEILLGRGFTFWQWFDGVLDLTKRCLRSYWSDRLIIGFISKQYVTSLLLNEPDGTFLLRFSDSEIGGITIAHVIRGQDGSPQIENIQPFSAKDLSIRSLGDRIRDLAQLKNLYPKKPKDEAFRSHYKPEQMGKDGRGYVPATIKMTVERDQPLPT
Summary of the method: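 Serially diluted compounds received a premix of STAT6 (W123-T658, 250 nM) and 5-FAM peptide probe (2 nM) in pH 7.4 HEPES buffer containing DTT and Tween 20. Following 45 min at room temperature, FP was recorded. IC50s were fitted by nonlinear regression; values are binned A (≤300 nM), B (>300-3000 nM), C (>3-30 μM), D (>30 μM).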

[3] = probe 5-FAM-ApYKPFQDLI-NH2 2 nM

T1 sequence (P40763 127-722): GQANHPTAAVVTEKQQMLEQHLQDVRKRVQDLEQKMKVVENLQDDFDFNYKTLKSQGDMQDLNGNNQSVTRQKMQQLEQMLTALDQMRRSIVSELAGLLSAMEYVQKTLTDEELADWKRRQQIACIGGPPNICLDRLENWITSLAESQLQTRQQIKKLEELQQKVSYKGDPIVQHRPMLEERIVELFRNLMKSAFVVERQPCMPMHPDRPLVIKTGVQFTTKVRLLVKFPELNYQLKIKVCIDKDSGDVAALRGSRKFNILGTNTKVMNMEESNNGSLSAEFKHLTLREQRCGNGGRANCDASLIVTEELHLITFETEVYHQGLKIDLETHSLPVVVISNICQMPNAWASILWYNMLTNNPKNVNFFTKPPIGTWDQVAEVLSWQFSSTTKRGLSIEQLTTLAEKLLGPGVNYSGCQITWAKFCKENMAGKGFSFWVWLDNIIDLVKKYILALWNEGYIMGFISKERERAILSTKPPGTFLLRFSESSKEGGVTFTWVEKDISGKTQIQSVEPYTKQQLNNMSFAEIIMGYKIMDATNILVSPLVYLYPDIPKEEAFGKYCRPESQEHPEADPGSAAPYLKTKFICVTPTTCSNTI

SMILES	IC50 [1]	IC50 ([2]; probe 5-FAM-Ap[…]-NH2 2 nM)	IC50 [2, 3]
Cn1ccc(C2CN(C(=O)[C@@H]3CC[C@@H]4CCC[C@H](NC(=O)c5cc6cc([C@@H](F)P(=O)(O)O)ccc6s5)C(=O)N43)C2)cc1=O (single isomer, unassigned) [Compound 708]	0.1 to 1 µM	3 to 30 µM	
CCOc1cc(C2CN(C(=O)[C@@H]3CC[C@@H]4CCC[C@H](NC(=O)c5cc6cc([C@@H](F)P(=O)(O)O)ccc6s5)C(=O)N43)C2)ccn1 (single isomer, unassigned) [Compound 709]	0.1 to 1 µM	3 to 30 µM	
CN(C)c1nccc(C2CN(C(=O)[C@@H]3CC[C@@H]4CCC[C@H](NC(=O)c5cc6cc([C@@H](F)P(=O)(O)O)ccc6s5)C(=O)N43)C2)n1 (single isomer, unassigned) [Compound 710]	0.1 to 1 µM	3 to 30 µM	
O=C(N[C@H]1CCC[C@H]2CC[C@@H](C(=O)N3CC(c4ccnc(N5CCOCC5)c4)C3)N2C1=O)c1cc2cc([C@@H](F)P(=O)(O)O)ccc2s1 (single isomer, unassigned) [Compound 712]	1 to 10 µM	3 to 30 µM	
C[C@@H]1[C@@H](c2cccnc2)CN1C(=O)[C@@H]1CC[C@@H]2CCC[C@H](NC(=O)c3cc4cc(C(F)P(=O)(O)O)ccc4s3)C(=O)N21 (single isomer, unassigned) [Compound 738]	< 0.1 µM	0.3 to 3 µM	
Cc1ccncc1C1CN(C(=O)[C@@H]2CC[C@@H]3C[C@H](C)C[C@H](NC(=O)c4cc5cc([C@H](F)P(=O)(O)O)ccc5s4)C(=O)N32)C1 (single isomer, unassigned) [Compound 740]	< 0.1 µM	3 to 30 µM	
O=C(N[C@H]1CCC[C@H]2CC[C@@H](C(=O)N3CC(c4cnccc4N4CCC4)C3)N2C1=O)c1cc2cc([C@@H](F)P(=O)(O)O)ccc2s1 (single isomer, unassigned) [Compound 741]	< 0.1 µM	0.3 to 3 µM	
O=C(N[C@H]1CCC[C@H]2CC[C@@H](C(=O)N3CC(c4cnccc4N4CCC4)C3)N2C1=O)c1cc2cc([C@H](F)P(=O)(O)O)ccc2s1 (single isomer, unassigned) [Compound 742]	< 0.1 µM	0.3 to 3 µM	
O=C(N[C@H]1CCC[C@H]2CC[C@@H](C(=O)N3CC(c4cnccc4N4CCOCC4)C3)N2C1=O)c1cc2cc([C@@H](F)P(=O)(O)O)ccc2s1 (single isomer, unassigned) [Compound 745]	< 0.1 µM	3 to 30 µM	
O=C(N[C@H]1CCC[C@H]2CC[C@@H](C(=O)N3CC(c4cnccc4N4CCOCC4)C3)N2C1=O)c1cc2cc([C@H](F)P(=O)(O)O)ccc2s1 (single isomer, unassigned) [Compound 746]	< 0.1 µM	3 to 30 µM	
CC(C)Oc1ccncc1C1CN(C(=O)[C@@H]2CC[C@@H]3C[C@@H](C)C[C@H](NC(=O)c4cc5cc([C@H](F)P(=O)(O)O)ccc5s4)C(=O)N32)C1 (single isomer, unassigned) [Compound 748]	< 0.1 µM	3 to 30 µM	
Cc1ccncc1C1CN(C(=O)[C@@H]2CC[C@@H]3C[C@H](C)C[C@H](NC(=O)c4cc5cc([C@@H](F)P(=O)(O)O)ccc5s4)C(=O)N32)C1 (single isomer, unassigned) [Compound 753]	< 0.1 µM	3 to 30 µM	
CCOc1ccncc1C1CN(C(=O)[C@@H]2CC[C@@H]3CCC[C@H](NC(=O)c4cc5cc([C@@H](F)P(=O)(O)O)ccc5s4)C(=O)N32)C1 (single isomer, unassigned) [Compound 771]	< 0.1 µM	3 to 30 µM	
CCOc1ccncc1C1CN(C(=O)[C@@H]2CC[C@@H]3CCC[C@H](NC(=O)c4cc5cc([C@H](F)P(=O)(O)O)ccc5s4)C(=O)N32)C1 (single isomer, unassigned) [Compound 772]	< 0.1 µM	3 to 30 µM	
C[C@H]1C[C@H]2CC[C@@H](C(=O)N3C[C@@H](C#N)[C@H](c4ccccc4)C3)N2C(=O)[C@@H](NC(=O)c2cc3cc(C(F)(F)P(=O)(O)O)ccc3s2)C1 (single isomer, unassigned) [Compound 782]	0.1 to 1 µM	0.3 to 3 µM	
COc1cncc([C@@H]2CN(C(=O)[C@@H]3CC[C@@H]4CCC[C@H](NC(=O)c5cc6cc([C@H](F)P(=O)(O)O)ccc6s5)C(=O)N43)C3(CC3)[C@H]2C#N)c1 (single isomer, unassigned) [Compound 843]	1 to 10 µM	0.3 to 3 µM	

More lines, now with the values ahead:

IC50 [1]	IC50 ([2]; probe 5-FAM-Ap[…]-NH2 2 nM)	IC50 [2, 3]	SMILES
0.1 to 1 µM	3 to 30 µM		COc1cc(C2CN(C(=O)[C@@H]3CC[C@@H]4CCC[C@H](NC(=O)c5cc6cc([C@@H](F)P(=O)(O)O)ccc6s5)C(=O)N43)C2)ccn1 (single isomer, unassigned) [Compound 702]
< 0.1 µM	3 to 30 µM		CNc1c(F)cncc1C1CN(C(=O)[C@@H]2CC[C@@H]3CCC[C@H](NC(=O)c4cc5cc([C@H](F)P(=O)(O)O)ccc5s4)C(=O)N32)C1 (single isomer, unassigned) [Compound 703]
0.1 to 1 µM	3 to 30 µM		CN(C)c1cncc(C2CN(C(=O)[C@@H]3CC[C@@H]4CCC[C@H](NC(=O)c5cc6cc([C@H](F)P(=O)(O)O)ccc6s5)C(=O)N43)C2)c1Cl (single isomer, unassigned) [Compound 713]
< 0.1 µM	3 to 30 µM		COc1ccncc1C1CN(C(=O)[C@@H]2CC[C@@H]3CCC[C@H](NC(=O)c4cc5cc([C@H](F)P(=O)(O)O)ccc5s4)C(=O)N32)C1 (single isomer, unassigned) [Compound 747]
< 0.1 µM	3 to 30 µM		Cc1ccncc1C1CN(C(=O)[C@@H]2CC[C@@H]3CCC[C@H](NC(=O)c4cc5cc([C@@H](F)P(=O)(O)O)ccc5s4)C(=O)N32)C1 (single isomer, unassigned) [Compound 755]
< 0.1 µM	3 to 30 µM		COc1ccncc1C1CN(C(=O)[C@@H]2CC[C@@H]3CCC[C@H](NC(=O)c4cc5cc([C@@H](F)P(=O)(O)O)ccc5s4)C(=O)N32)C1 (single isomer, unassigned) [Compound 756]
1 to 10 µM	≤ 0.3 µM		N#C[C@@H]1[C@@H](c2ccccc2)CN(C(=O)[C@@H]2CC[C@@H]3CCCC[C@H](NC(=O)c4ccc5ccc([C@@H](F)P(=O)(O)O)cc5c4)C(=O)N32)C12CC2 (single isomer, unassigned) [Compound 832]
1 to 10 µM	≤ 0.3 µM		N#C[C@@H]1[C@@H](c2cccnc2)CN(C(=O)[C@@H]2CC[C@@H]3CCC[C@H](NC(=O)c4cc5cc([C@H](F)P(=O)(O)O)ccc5s4)C(=O)N32)C12CC2 (single isomer, unassigned) [Compound 833]
1 to 10 µM	≤ 0.3 µM		N#C[C@@H]1[C@@H](c2ccccc2)CN(C(=O)[C@@H]2CC[C@@H]3CCCC[C@H](NC(=O)c4cc5cc([C@H](F)P(=O)(O)O)ccc5s4)C(=O)N32)C12CC2 (single isomer, unassigned) [Compound 835]
1 to 10 µM	≤ 0.3 µM		N#C[C@H]1[C@H](c2ccccc2)CN(C(=O)[C@@H]2CC[C@@H]3CCCC[C@H](NC(=O)c4cc5cc([C@@H](F)P(=O)(O)O)ccc5s4)C(=O)N32)C12CC2 (single isomer, unassigned) [Compound 836]
1 to 10 µM	≤ 0.3 µM		N#C[C@@H]1[C@@H](c2cccnc2)CN(C(=O)[C@@H]2CC[C@@H]3CCC[C@H](NC(=O)c4cc5cc([C@@H](F)P(=O)(O)O)ccc5s4)C(=O)N32)C12CC2 (single isomer, unassigned) [Compound 837]
1 to 10 µM	≤ 0.3 µM		N#C[C@@H]1[C@@H](c2cccnc2)CN(C(=O)[C@@H]2CC[C@@H]3CCCC[C@H](NC(=O)c4cc5cc([C@H](F)P(=O)(O)O)ccc5s4)C(=O)N32)C12CC2 (single isomer, unassigned) [Compound 839]
1 to 10 µM		≤ 0.3 µM	N#C[C@@H]1[C@@H](c2cccnc2)CN(C(=O)[C@@H]2CC[C@@H]3CCCC[C@H](NC(=O)c4cc5cc([C@H](F)P(=O)(O)O)ccc5s4)C(=O)N32)C12CC2 (single isomer, unassigned) [Compound 840]
1 to 10 µM	0.3 to 3 µM		N#C[C@@H]1[C@@H](c2cncc(Cl)c2)CN(C(=O)[C@@H]2CC[C@@H]3CCC[C@H](NC(=O)c4cc5cc([C@H](F)P(=O)(O)O)ccc5s4)C(=O)N32)C12CC2 (single isomer, unassigned) [Compound 841]
1 to 10 µM		0.3 to 3 µM	N#C[C@@H]1[C@@H](c2cncc(Cl)c2)CN(C(=O)[C@@H]2CC[C@@H]3CCC[C@H](NC(=O)c4cc5cc([C@H](F)P(=O)(O)O)ccc5s4)C(=O)N32)C12CC2 (single isomer, unassigned) [Compound 842]
